Patent US4855415A, “Glucosylmoranoline derivatives” (Nippon Shinyaku Co., Ltd., priority 1986, dated 1989)
≈ marks a conversion by molar mass, not a printed value.

How the values were obtained:
sucrase = biological target: T1, sucrase (Oryctolagus cuniculus, UniProt P07768); assay: alpha-glucosidase inhibiting action in vitro: sucrase; type: biochemical, rabbit; conditions: 50 mM sucrose, pH 7.0, 37° C., 30 minutes; for IC50: IC50, Sucrase, crudely purified enzyme from rabbit small intestine mucosa, average of three measurements (* four)
T1 construct: from tissue; host or cells: rabbit small intestine mucosa, crudely purified by a method of Takesue, 1969
T1 sequence (P07768 1008-1827 limits assumed): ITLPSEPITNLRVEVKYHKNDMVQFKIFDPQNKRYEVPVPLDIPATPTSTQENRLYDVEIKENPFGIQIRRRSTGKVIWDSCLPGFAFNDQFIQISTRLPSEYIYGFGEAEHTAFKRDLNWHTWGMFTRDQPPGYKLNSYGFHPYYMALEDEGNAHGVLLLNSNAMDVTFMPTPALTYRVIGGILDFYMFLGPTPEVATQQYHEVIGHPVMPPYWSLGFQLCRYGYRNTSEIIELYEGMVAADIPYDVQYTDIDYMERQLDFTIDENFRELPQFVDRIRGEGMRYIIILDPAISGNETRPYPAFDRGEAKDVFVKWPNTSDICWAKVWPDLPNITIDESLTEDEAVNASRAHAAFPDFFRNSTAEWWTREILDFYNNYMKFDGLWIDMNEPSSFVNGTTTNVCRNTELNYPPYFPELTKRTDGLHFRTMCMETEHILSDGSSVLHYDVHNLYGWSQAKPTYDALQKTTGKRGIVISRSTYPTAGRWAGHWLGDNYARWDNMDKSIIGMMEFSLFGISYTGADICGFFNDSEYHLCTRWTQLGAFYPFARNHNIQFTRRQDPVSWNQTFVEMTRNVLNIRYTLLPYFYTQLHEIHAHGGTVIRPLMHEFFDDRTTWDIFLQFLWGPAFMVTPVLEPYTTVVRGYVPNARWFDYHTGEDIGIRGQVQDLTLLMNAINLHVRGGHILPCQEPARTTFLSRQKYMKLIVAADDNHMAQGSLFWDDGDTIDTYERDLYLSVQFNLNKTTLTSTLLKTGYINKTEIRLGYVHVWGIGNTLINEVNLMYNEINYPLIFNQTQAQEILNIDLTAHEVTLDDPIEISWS
T1 sequence (P07768 2-1007 partner limits assumed): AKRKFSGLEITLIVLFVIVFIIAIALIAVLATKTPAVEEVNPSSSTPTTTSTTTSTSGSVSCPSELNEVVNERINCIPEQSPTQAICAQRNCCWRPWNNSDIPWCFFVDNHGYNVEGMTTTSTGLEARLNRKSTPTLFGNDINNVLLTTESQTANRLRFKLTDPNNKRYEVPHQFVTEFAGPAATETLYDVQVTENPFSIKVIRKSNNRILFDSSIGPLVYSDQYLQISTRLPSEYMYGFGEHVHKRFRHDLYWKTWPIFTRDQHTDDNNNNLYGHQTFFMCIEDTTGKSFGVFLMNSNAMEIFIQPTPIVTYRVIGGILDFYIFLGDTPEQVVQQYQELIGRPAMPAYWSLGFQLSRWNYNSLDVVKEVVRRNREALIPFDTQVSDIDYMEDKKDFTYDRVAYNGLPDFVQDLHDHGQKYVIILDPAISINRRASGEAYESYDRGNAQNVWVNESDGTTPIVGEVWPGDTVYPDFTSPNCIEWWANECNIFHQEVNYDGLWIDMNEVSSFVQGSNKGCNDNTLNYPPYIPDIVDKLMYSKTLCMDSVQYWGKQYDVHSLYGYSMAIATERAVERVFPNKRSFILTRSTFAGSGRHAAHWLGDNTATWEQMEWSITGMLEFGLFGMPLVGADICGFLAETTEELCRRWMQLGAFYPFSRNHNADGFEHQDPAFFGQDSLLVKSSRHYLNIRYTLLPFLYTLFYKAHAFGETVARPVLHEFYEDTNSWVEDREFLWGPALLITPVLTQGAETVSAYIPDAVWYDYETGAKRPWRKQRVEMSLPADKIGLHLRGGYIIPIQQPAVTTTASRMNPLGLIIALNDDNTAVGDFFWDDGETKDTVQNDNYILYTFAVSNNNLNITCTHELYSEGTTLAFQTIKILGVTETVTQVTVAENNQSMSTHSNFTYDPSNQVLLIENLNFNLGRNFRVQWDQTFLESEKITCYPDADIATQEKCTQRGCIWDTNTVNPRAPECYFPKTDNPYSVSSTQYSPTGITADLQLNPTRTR
Description: (§1) MEASUREMENT OF ALPHA-GLUCOSIDASE INHIBITING ACTION IN VITRO
(§2) The activity of the test compounds in inhibiting sucrase and maltase in vitro using a crudely purified enzyme preparation (purified in accordance with a method of Takesue, 1969) obtained from rabbit small intestine mocosa was carried out as follows.
(§3) To 40 microliters of enzyme solution diluted with 0.4M phosphate buffer (pH 7.0) are added 20 microliters of a solution of a test compound in the same buffer and 140 microliters of a solution of a substrate (50 mM sucrose or 50 mM maltose) in the same buffer and the mixture is allowed to react at 37° C. for 30 minutes. The reaction is then stopped by adding 400 microliters of 3N barium hydroxide and 400 microliters of 5% zinc sulfate solution. The amount of the enzyme that is reacted is determined as the amount of glucose contained in 200 microliters of the supernatant liquid of the reaction solution by adding 3 ml of glucoseoxidase reagent (Bioehringer-Mannheim) followed by reacting at ambient temperature for 30 minutes and measuring the absorbance at 420 nm. The concentration of the compound that provides 50% inhibition (IC50) of sucrase and maltase is calculated by expressing the values (as measured by the above method with five different concentrations) as an inhibitory rate (%) to the control.

mice = assay: oral toxicity in mice; type: in vivo; conditions: orally, 5 g/kg
Description: The toxicity of the compounds (I) was tested by giving the compound of Example 1 orally to mice (5 g/kg) but there were no deaths.

maltase = assay: alpha-glucosidase inhibiting action in vitro: maltase; type: biochemical, rabbit; conditions: 50 mM maltose, pH 7.0, 37° C., 30 minutes; for inhibitory rate, Maltase: ** inhibitory rate at 100 μg/ml; for IC50, Maltase: crudely purified enzyme from rabbit small intestine mucosa, average of three measurements (* four)
Description: as §1, §2, §3

[1] = tested on: increase in blood glucose level; assay: inhibitory action against increase in blood glucose level in rats (oral sucrose load); type: in vivo, SD-Strain rats; conditions: per os, 1 ml/100 g of sucrose solution (2 g/10 ml) containing 30 mg test compound, 180 minutes after administration
Description: INHIBITORY ACTION AGAINST INCREASE IN BLOOD GLUCOSE LEVEL IN RATS
SD-Strain rats (5 weeks age; male; each group comprising 4 to 5 rats) were fasted overnight and then given 1 ml/100 g body weight of aqueous solution of sucrose (2 g/10 ml) containing 30 mg test compound per os through a stomach tube.
Blood was taken from the tail vein immediately before the administration and at 30, 60, 90, 120 and 180 minutes thereafter and blood glucose levels were measured by a glucose oxidase method (using the assay kit prepared by Boehringer Mannheim).
Based on the values obtained above, a graph was drawn using time as the abscissa and blood glucose level as the ordinate and the area (ΔAUC)under the time-blood glucose increase curve was determined.
A group of rats receiving only water and another group receiving only sucrose were designated as a basal group (group B) and a control group (group C), respectively. Then the inhibitory rate for an increase in ΔAUC 180 minutes after administration of the test compounds (group T) was calculated from the following expression. [formula]

Compound | IC50 (sucrase) [µM] | deaths (mice) | inhibitory rate, Maltase (maltase) [%] | Inhibitory Rate (%) for increase in ΔAUC of blood glucose [1] [%] | IC50, Maltase (maltase) [µg/mL] | inhibition at 100 µg/mL (sucrase; ** inhibitory rate at 100 μg/ml) [%]
Cc1ccc(CN2C[C@H](O)[C@@H](O)[C@H](O[C@H]3O[C@H](CO)[C@@H](O)[C@H](O)[C@H]3O)[C@H]2CO)cc1 [Example 1, 4-O-alpha-D-Glucopyranosyl-N-(p-methylbenzyl)-moranoline] | 36.1 | no deaths | 23.5 | 68.6 |  | 
CC(C)=CCN1C[C@H](O)[C@@H](O)[C@H](O[C@H]2O[C@H](CO)[C@@H](O)[C@H](O)[C@H]2O)[C@H]1CO [Example 3, 4-O-alpha-D-Glucopyranosyl-N-(3-methylcrotyl)moranoline p-toluensulfonate] | 43.7 |  |  | 73.2 | 248.9 (≈ 633 µM) | 
OC[C@@H]1[C@@H](O[C@H]2O[C@H](CO)[C@@H](O)[C@H](O)[C@H]2O)[C@H](O)[C@@H](O)CN1Cc1ccc(Br)cc1 [Example 4, 4-O-alpha-D-Glucopyranosyl-N-(p-bromobenzyl)moranoline] | 20.2 |  |  |  | 34.2 (≈ 69.2 µM) | 
CCCCCCN1C[C@H](O)[C@@H](O)[C@H](O[C@H]2O[C@H](CO)[C@@H](O)[C@H](O)[C@H]2O)[C@H]1CO [Example 5, 4-O-alpha-D-Glucopyranosyl-N-hexylmoranoline p-toluenesulfonate] |  |  |  | 94.8 |  | 
OC[C@@H]1[C@@H](O[C@H]2O[C@H](CO)[C@@H](O)[C@H](O)[C@H]2O)[C@H](O)[C@@H](O)CN1CCc1ccccc1 [Example 6, 4-O-alpha-D-Glucopyranosyl-N-(beta-phenylethyl)moranoline] | 71.7 |  |  | 69.9 | 192.5 (≈ 448 µM) | 
COc1ccc(CN2C[C@H](O)[C@@H](O)[C@H](O[C@H]3O[C@H](CO)[C@@H](O)[C@H](O)[C@H]3O)[C@H]2CO)cc1 [Example 8, 4-O-alpha-D-Glucopyranosyl-N-(p-methoxybenzyl)moranoline] | 55.7 |  |  | 54.8 | 173.0 (≈ 388 µM) | 
OC[C@@H]1[C@@H](O[C@H]2O[C@H](CO)[C@@H](O)[C@H](O)[C@H]2O)[C@H](O)[C@@H](O)CN1CCOc1ccccc1 [Example 9, 4-O-alpha-D-Glucopyranosyl-N-(beta-phenoxyethyl)moranoline] | 14.4 |  |  | 64.5 | 223.6 (≈ 502 µM) | 
O=C(O)c1ccc(CN2C[C@H](O)[C@@H](O)[C@H](O[C@H]3O[C@H](CO)[C@@H](O)[C@H](O)[C@H]3O)[C@H]2CO)cc1 [Example 12, 4-O-alpha-D-Glucopyranosyl-N-(4-carboxybenzyl)moranoline p-toluenesulfonate] |  |  | 2.0 | 46.6 |  | 21.9
C=CCN1C[C@H](O)[C@@H](O)[C@H](O[C@H]2O[C@H](CO)[C@@H](O)[C@H](O)[C@H]2O)[C@H]1CO [Example 13, 4-O-alpha-D-Glucopyranosyl-N-allylmoranoline p-toluenesulfonate] | 62.7 |  |  | 77.1 | 262.1 (≈ 717 µM) | 
OC[C@@H]1[C@@H](O[C@H]2O[C@H](CO)[C@@H](O)[C@H](O)[C@H]2O)[C@H](O)[C@@H](O)CN1CCCCOc1ccccc1 [Example 14, 4-O-alpha-D-Glucopyranosyl-N-(4-phenoxybutyl)-moranoline] | 14.4 |  |  | 86.9 | 168.6 (≈ 356 µM) | 
CCCCCCCCCN1C[C@H](O)[C@@H](O)[C@H](O[C@H]2O[C@H](CO)[C@@H](O)[C@H](O)[C@H]2O)[C@H]1CO [Example 17, 4-O-alpha-D-Glucopyranosyl-N-nonylmoranoline hydrate] | 11.5 |  |  | 80.2 | 77.9 | 
COC(=O)CCCCN1C[C@H](O)[C@@H](O)[C@H](O[C@H]2O[C@H](CO)[C@@H](O)[C@H](O)[C@H]2O)[C@H]1CO [Example 18, 4-O-alpha-D-Glucopyranosyl-N-(4-methoxycarbonylbutyl)moranoline p-toluenesulfonate] | 45.1 |  |  | 47.9 | 44.6 (≈ 101 µM) | 
OC[C@@H]1[C@@H](O[C@H]2O[C@H](CO)[C@@H](O)[C@H](O)[C@H]2O)[C@H](O)[C@@H](O)CN1CCc1ccccc1 [Example 19, 4-O-alpha-D-Glucopyranosyl-N-phenethylmoranoline p-toluenesulfonate] |  |  |  | 54.0 |  | 
OC[C@@H]1[C@@H](O[C@H]2O[C@H](CO)[C@@H](O)[C@H](O)[C@H]2O)[C@H](O)[C@@H](O)CN1CC=Cc1ccccc1 [Example 20, 4-O-alpha-D-Glucopyranosyl-N-cinnamylmoranoline p-toluenesulfonate] | 22 |  |  | 76.8 | 284.9 (≈ 645 µM) | 
OC[C@@H]1[C@@H](O[C@H]2O[C@H](CO)[C@@H](O)[C@H](O)[C@H]2O)[C@H](O)[C@@H](O)CN1CC(O)COc1ccccc1 (stereo partly drawn) [Example 22, 4-O-alpha-D-Glucopyranosyl-N-(2-hydroxy-3-phenoxypropyl)moranoline p-toluenesulfonate hydrate] | 33.9 |  |  | 48.4 | 40.9 | 
Cc1ccc(CN2C[C@H](O)[C@@H](O)[C@H](O[C@H]3O[C@H](CO)[C@@H](O)[C@H](O)[C@H]3O)[C@H]2CO)cc1 [Example 25, 4-O-alpha-D-Glucopyranosyl-N-(p-methylbenzyl)moranoline p-toluenesulfonate] | 32.6 |  |  | 84.4 | 69.2 (≈ 161 µM) | 
